Measurements from publication PMC10182601, “Biological evaluation of novel gemcitabine analog in patient-derived xenograft models of pancreatic cancer” (BMC Cancer, 2023).
Where a name gives a salt, the structure may show the parent alone.

How the values were obtained:
PPCL-192 cells = test: Cell migration (wound) assay, PPCL-192; assay type: cell-based, human; settings: PPCL-192, 5 µM, 48 h
Experimental: (§1) A cell migration assay was conducted to determine the effect of 4NSG-SLN on PPCL-192 and PPCL-46 cell motility. The Ibidi cell culture inserts were used to grow the cells into two confluent monolayers separated by a "wound" for this assay. The cells were seeded into 24-well plates at a cell density of 2.5 × 10^5, 48 h at 37 °C. At 75% confluency, cells formed adherent monolayers on either side of the tissue culture insert. Before treatment, the cells were serum-starved by replacing complete media with base media (DMEM) and then further incubated for 48 h. After serum starvation, the inserts were gently removed to generate a gap or "wound" between the two confluent layers of cells, and the monolayers were washed with experimental media. Afterward, cells were exposed to 5 μM concentration of GemHCl and 4NSG-SLN treatments. Images of the cells invading the wound were then captured after 48 h with a Nikon Ti Eclipse microscope.

[1] = test system: PCa PDX tumor from Black patients; test: Tumor efficacy in PDX mice bearing tumors from Black PCa patients; assay type: in vivo; settings: 30 mg/kg Gem equivalent i.v. twice weekly for 3 weeks
Excerpt: (§2) The implantation of surgical tumor tissue into immuno-compromised mice was described previously. A viable portion of resected tissue 2 × 2 mm in size was briefly isolated immediately from surgically resected primary PCa specimens (from Blacks and White patients) with care to minimize critical ischemia time. The PCa tissues were then implanted subcutaneously into an 8-week-old mouse (The Jackson Laboratory, Bar Harbor, ME). The xenografts were allowed to grow to a maximum diameter of 1.5 cm before passage and in vitro culture.
(§3) Mice-bearing surgically implanted tumors obtained from Black and White patients with sizes of 70–100 mm^3 were randomized into groups as control, GemHCl, and 4NSG-SLN (n = 5/group). Baseline tumor volume was established, and dosing initiation began on day 1 with intravenous administration of 30 mg/kg Gem (twice weekly for 3 weeks) with an equivalent dose of GemHCl and 4NSG-SLN [42]. Once tumors became palpable, their volume was measured thrice per week, and the mice's weight was recorded twice weekly. Tumor volumes were measured using digital calipers and calculated using the following equation: V = (L*(W)^2)/2, where V is the volume (mm^3), W(width) is the smaller of two perpendicular tumor axes, and the L (length) is the larger of two vertical axes. Mean tumor volume growth curves were calculated for each treatment group.

PPCL-46 cells [2] = test: Cell migration (wound) assay, PPCL-46; assay type: cell-based, human; settings: PPCL-46, 5 µM, 48 h
Experimental: as §1

PPCL-46 cells [3] = test: Cell cycle distribution (PI, flow cytometry), PPCL-46; assay type: cell-based, human; settings: 24 h
Experimental: Cell cycle study was performed to determine the effect of 4NSG-SLN on the cell cycle; PPCL-192 and PPCL-46 cells (2 × 10^5 cells per well) were seeded in 6-well plates and cultured using DMEM medium supplemented with 10% FBS10 mM HEPES, 10% FBS, and 1% penicillin/streptomycin were seeded in 6-well plates and incubated at 37 °C. After the cells reached 75% confluence, they were exposed to different concentrations (5 μM,10 μM, and 20 µM) of GemHCl and 4NSG-SLN. After 24 h exposure, cells were harvested, washed with PBS, centrifuged at 300 × g for 5 min, resuspended the pellets in 100 μL of PBS, and passed through a 28 5/8 needle to disperse them into single cells. Fixation and permeation of cells were performed using cold 70% ethanol while vortexing. Cells were then stored at − 20 °C overnight. The cells were resuspended in 0.1 mg/mL RNase, stained with […] PI, and the phase distribution was examined using flow cytometry (FACScalibur-Becton Dickinson).

[4] = test system: PCa PDX tumor from White patients; test: Tumor efficacy in PDX mice bearing tumors from White PCa patients; assay type: in vivo; settings: 30 mg/kg Gem equivalent i.v. twice weekly for 3 weeks
Excerpt: as §2, §3

VEGFR = test: Immunohistochemistry of PDX tumor tissue, VEGFR; assay type: in vivo, mice; settings: for VEGF % Moderate Positive Cells / VEGF % Positive / VEGF % Weak Positive Cells / VEGF H Score / VEGF % Strong Positive Cells: IHC
Experimental: [The source words this procedure for another target and reports this target under the same test.] Tissue samples from mice bearing tumors from Black and White PCa patients post treatments with GemHCl and 4NSG-SLN were excised and immediately washed with PBS, fixed (10% buffered formalin) for 24 h, and transferred to 70% ethanol for histopathological analysis. Histology was performed by HistoWiz Inc. (Histowiz.com) according to manufacturer protocol. Samples were embedded in paraffin, and 4 μm sections were prepared. Immunohistochemistry was performed on a Bond Rx autostainer (Leica Biosystems) with enzyme treatment (1:1000) using standard protocols (https://home.histowiz.com/faq/). Samples were incubated overnight with primary antibodies (Antibodies used were rat monoclonal F4/80 primary antibody (eBioscience, 14–4801, and 1:200), and immunohistochemical staining was done using rabbit anti-rat secondary (Vector Labs, 1:100). Bond Polymer Refine Detection was used per the manufacturer's protocol (Leica Biosystems). After staining, sections were dehydrated and filmed, coverslipped using a Tissue-Tek Prisma coverslip (Sakura). Whole slide scanning (40x) was performed on an Aperio AT2 (Leica Biosystems).

HER2 = test: Immunohistochemistry of PDX tumor tissue, HER2; assay type: in vivo, mice
[5] = BT PDX tumor tissue after treatment
[6] = BT and WT PDX tumor tissues, 40X
[7] = WT PDX tumor tissue after treatment
[8] = BT PDX tumor tissue after treatment, IHC
[9] = WT PDX tumor tissue after treatment, IHC

Nc1ccn([C@@H]2O[C@H](CO)[C@@H](O)C2(F)F)c(=O)n1 [GemHCl, Gemcitabine hydrochloride]
Number of cells migrated (PPCL-192 cells): 84 ± 3.1 | Mean terminal tumor volume ([1]; day 1, BT PDX mice): 12.5 ± 6 mm^3 | Mean terminal tumor volume ([1]; day 3, BT PDX mice): 25.0 ± 12 mm^3 | Mean terminal tumor volume ([1]; day 5, BT PDX mice): 35.7 ± 18 mm^3 | Mean terminal tumor volume ([1]; day 7, BT PDX mice): 73.0 ± 21 mm^3 | Mean terminal tumor volume ([1]; day 11, BT PDX mice): 662. ± 198 mm^3 | Mean terminal tumor volume ([1]; day 13, BT PDX mice): 767. ± 194 mm^3 | Mean terminal tumor volume ([1]; day 15, BT PDX mice): 911. ± 152 mm^3 | Mean terminal tumor volume ([1]; day 17, BT PDX mice): 990. ± 151 mm^3 | Mean terminal tumor volume ([1]; day 19, BT PDX mice): 1129 ± 172 mm^3 | Mean terminal tumor volume ([1]; day 21, BT PDX mice): 1204 ± 184 mm^3 | Mean terminal tumor volume ([1]; day 23, BT PDX mice): 1456 ± 154 mm^3 | Mean terminal tumor volume ([1]; day 25, BT PDX mice): 1681 ± 172 mm^3 | Number of cells migrated (PPCL-46 cells [2]): 120 ± 3.8 | %G1 (PPCL-46 cells [3]; PPCL-46, 5 μM): 72.75% | %G2 (PPCL-46 cells [3]; PPCL-46, 5 μM): 12.56% | %S (PPCL-46 cells [3]; PPCL-46, 5 μM): 14.69% | %G1 (PPCL-46 cells [3]; PPCL-46, 10 μM): 74.08% | %G2 (PPCL-46 cells [3]; PPCL-46, 10 μM): 10.39% | %S (PPCL-46 cells [3]; PPCL-46, 10 μM): 15.53% | %G1 (PPCL-46 cells [3]; PPCL-46, 20 μM): 76.35% | %G2 (PPCL-46 cells [3]; PPCL-46, 20 μM): 9.54% | %S (PPCL-46 cells [3]; PPCL-46, 20 μM): 14.11% | Mean terminal tumor volume ([4]; day 0, WT (patient tumor) PDX mice): 0 mm^3 | Mean terminal tumor volume ([4]; day 1, WT PDX mice): 13.9 ± 2 mm^3 | Mean terminal tumor volume ([4]; day 3, WT PDX mice): 27.8 ± 4 mm^3 | Mean terminal tumor volume ([4]; day 5, WT PDX mice): 39.7 ± 5 mm^3 | Mean terminal tumor volume ([4]; day 7, WT PDX mice): 43.5 ± 16 mm^3 | Mean terminal tumor volume ([4]; day 9, WT PDX mice): 177.8 ± 60 mm^3 | Mean terminal tumor volume ([4]; day 11, WT PDX mice): 583.2 ± 227 mm^3 | Mean terminal tumor volume ([4]; day 13, WT PDX mice): 646.9 ± 240 mm^3 | Mean terminal tumor volume ([4]; day 15, WT PDX mice): 752.6 ± 241 mm^3 | Mean terminal tumor volume ([4]; day 17, WT PDX mice): 850.8 ± 205 mm^3 | Mean terminal tumor volume ([4]; day 19, WT PDX mice): 868.2 ± 294 mm^3 | Mean terminal tumor volume ([4]; day 21, WT PDX mice): 1053 ± 86 mm^3 | Mean terminal tumor volume ([4]; day 23, WT PDX mice): 1344.7 ± 171 mm^3 | Mean terminal tumor volume ([4]; day 25, WT PDX mice): 1748.2 ± 223 mm^3 | VEGF % Moderate Positive Cells (VEGFR; [5]): 0.6 ± 0.2% | VEGF % Positive (VEGFR; [5]): 27 ± 0.4% | VEGF % Weak Positive Cells (VEGFR; [5]): 1.2 ± 0.3% | VEGF H Score (VEGFR; [5]): 4.7 | VEGF % Strong Positive Cells (VEGFR; BT PDX tumor tissue after treatment, first line of this name (r21)): 0.5 ± 0.1% | VEGF % Strong Positive Cells (VEGFR; BT PDX tumor tissue after treatment, second line of this name (r22)): 70.7 ± 7.8% | VEGFR expression in representative IHC images (VEGFR; [6]): moderate to high | VEGF % Moderate Positive Cells (VEGFR; [7]): 0.6 ± 0.1% | VEGF % Positive (VEGFR; [7]): 30 ± 1.4% | VEGF % Weak Positive Cells (VEGFR; [7]): 0.7 ± 0.3% | VEGF H Score (VEGFR; [7]): 10.0 | VEGF % Strong Positive Cells (VEGFR; WT PDX tumor tissue after treatment, first line of this name (r21)): 0.7 ± 0.3% | VEGF % Strong Positive Cells (VEGFR; WT PDX tumor tissue after treatment, second line of this name (r22)): 68 ± 3.8% | HER2 % Moderate Positive Cells (HER2; [8]): 7.2 ± 4.3% | HER2 % Positive (HER2; [8]): 17.2 ± 1.0% | HER2 % Strong Positive Cells (HER2; [8]): 3.7 ± 0.8% | HER2 % Weak Positive Cells (HER2; [8]): 9.3 ± 1.4% | HER2 %Negative Cells (HER2; [8]): 62.6 ± 3.4% | HER2 H Score (HER2; [8]): 31.8 | HER2 expression in representative IHC images (HER2; [6]): moderate to high | HER2 % Positive (HER2; [9]): 19.9 ± 1.5% | HER2 % Strong Positive Cells (HER2; [9]): 3.6 ± 1.2% | HER2 % Weak Positive Cells (HER2; [9]): 8.9 ± 0.8% | HER2 %Negative Cells (HER2; [9]): 57.4 ± 7.3% | HER2 H Score (HER2; [9]): 30.9
